Among the data in PubChem BioAssay (NCI) are TGI values, retold here.

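Interpolation was linear, between the two tested concentrations surrounding the appropriate level; five concentrations were tested over 48 hours in 96-well plates. The concentration for full growth arrest is given as TGI.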 A value given as a limit tells only on which side of the number the result lay.

Some test systems named below: CCRF-CEM leukemia; COLO 205 colon; BT-549 breast; OVCAR-3 ovarian; KM12 colon; HOP-92 NSCLC; SK-MEL-5 melanoma; SK-OV-3 ovarian; U251 CNS; K-562 leukemia; HT29 colon; OVCAR-5 ovarian; HCT-116 colon.
Experiment in all cases: DTP human tumour cell line panel, 48 h

`COc1ccc(C2CC(c3c(O)ccc4ccccc34)=NN2)cc1OC` (stereo unspecified): the TGI in the assay on CCRF-CEM leukemia is more than 100 µM; in the assay with COLO 205 colon it was 46.5 µM; with BT-549 breast it was 16.1 µM; in the assay on OVCAR-3 ovarian, 20.6 µM; with KM12 colon, 11.4 µM; in the assay on HOP-92 NSCLC, 24.7 µM. Besides, the total growth inhibition concentration (TGI) in the assay with SK-MEL-5 melanoma was 12.6 µM; with SK-OV-3 ovarian, 28.8 µM; with U251 CNS it was 11 µM; in the assay with K-562 leukemia, more than 100 µM; in the assay on HT29 colon it was 4.98 µM; with OVCAR-5 ovarian it was 18.2 µM.
In the case of `O=[N+]([O-])c1ccc(-c2csc(N=Nc3c(O)[nH]c4ccccc34)n2)cc1`, the TGI with COLO 205 colon was more than 100 µM; in the assay on BT-549 breast it was 42.8 µM; in the assay with OVCAR-3 ovarian, more than 100 µM; in the assay on KM12 colon it was more than 100 µM; in the assay on HOP-92 NSCLC, 74.5 µM; in the assay on SK-MEL-5 melanoma it was more than 100 µM. The total growth inhibition concentration (TGI) with SK-OV-3 ovarian was more than 100 µM; in the assay with U251 CNS, more than 100 µM; in the assay with HCT-116 colon, more than 100 µM; with HT29 colon it was 76.6 µM; with OVCAR-5 ovarian, 45.4 µM.
As to `COC1OC2COC1(OCc1ccccc1)C1OC(C)(C)OC21` (stereo unspecified), the TGI in the assay on CCRF-CEM leukemia, with COLO 205 colon, in the assay with BT-549 breast, with OVCAR-3 ovarian, in the assay with KM12 colon and in the assay with SK-MEL-5 melanoma was more than 100 µM in each case. For the same compound, the TGI in the assay on SK-OV-3 ovarian, with U251 CNS, in the assay on K-562 leukemia, in the assay on HCT-116 colon, in the assay on HT29 colon and in the assay with OVCAR-5 ovarian was more than 100 µM each time.
On to `CCCCCCN(CCCCCC)CCC(=O)c1ccc2cc(Br)c3ccccc3c2c1`, for which the TGI is 80.4 µM in the assay on COLO 205 colon; 51.6 µM in the assay on BT-549 breast; more than 100 µM in the assay with OVCAR-3 ovarian; 52.9 µM with KM12 colon; 64.9 µM in the assay on HOP-92 NSCLC; 96.1 µM in the assay with SK-MEL-5 melanoma. In addition, the TGI in the assay on SK-OV-3 ovarian, in the assay on U251 CNS, in the assay with K-562 leukemia, with HCT-116 colon, with HT29 colon and with OVCAR-5 ovarian was more than 100 µM throughout.
For the compound `O=c1onc2n1-c1ccc(Cl)cc1C(=S)N1CSCC21` (stereo unspecified), the total growth inhibition concentration (TGI) with CCRF-CEM leukemia was more than 100 µM; with COLO 205 colon it was 35.1 µM; in the assay with BT-549 breast, 67.4 µM; in the assay on OVCAR-3 ovarian, more than 100 µM; in the assay on KM12 colon, 59.6 µM; in the assay on SK-MEL-5 melanoma, more than 100 µM. In addition, the TGI in the assay on SK-OV-3 ovarian is 49.4 µM; in the assay on U251 CNS, 35.9 µM; in the assay with K-562 leukemia it was more than 100 µM; in the assay on HCT-116 colon it was 95.7 µM; in the assay with HT29 colon it was 53.1 µM; with OVCAR-5 ovarian, more than 100 µM.
Take `CCCCSC1=N/C(=C\c2ccccc2O)C(=O)N1`: the concentration for total growth inhibition (TGI) in the assay with COLO 205 colon, with BT-549 breast, in the assay on OVCAR-3 ovarian, in the assay with KM12 colon, with HOP-92 NSCLC and in the assay with SK-OV-3 ovarian was more than 100 µM in each case. For the same compound, the TGI in the assay with U251 CNS, in the assay on K-562 leukemia, in the assay with HCT-116 colon, in the assay on HT29 colon and in the assay with OVCAR-5 ovarian was more than 100 µM in each case.
For the compound `C=C1C(C(=O)OC)[C@H]1C(=O)OC` (stereo partly specified), the TGI with COLO 205 colon, with BT-549 breast, in the assay on OVCAR-3 ovarian, with KM12 colon, in the assay with HOP-92 NSCLC and in the assay with SK-MEL-5 melanoma was more than 100 µM throughout. The total growth inhibition concentration (TGI) in the assay on SK-OV-3 ovarian, with U251 CNS, in the assay on HCT-116 colon, in the assay with HT29 colon and in the assay with OVCAR-5 ovarian was more than 100 µM throughout.
In the case of `CCOC(=O)c1c(N)sc2c1CC(C)CC2` (stereo unspecified), the TGI in the assay on COLO 205 colon is 89.5 µM; in the assay with BT-549 breast, more than 100 µM; with OVCAR-3 ovarian, more than 100 µM; in the assay with KM12 colon it was more than 100 µM; in the assay with HOP-92 NSCLC, 74.2 µM; in the assay on SK-MEL-5 melanoma, 37.7 µM. Moreover, the TGI was more than 100 µM in the assay with SK-OV-3 ovarian; more than 100 µM in the assay with U251 CNS; more than 100 µM in the assay on K-562 leukemia; more than 100 µM with HCT-116 colon; 50.3 µM in the assay on HT29 colon; more than 100 µM with OVCAR-5 ovarian.
`COc1ccc2[nH]cc(CCNC(=O)[C@H](Cc3ccc(O)cc3)NC(=O)[C@@H](NCC(F)(F)F)C(C)C)c2c1`: the TGI with CCRF-CEM leukemia was more than 100 µM; with COLO 205 colon, more than 100 µM; in the assay on BT-549 breast, more than 100 µM; in the assay on OVCAR-3 ovarian, 57.4 µM; with KM12 colon, more than 100 µM; in the assay on HOP-92 NSCLC, more than 100 µM. Besides, the concentration for total growth inhibition (TGI) with SK-OV-3 ovarian, in the assay with U251 CNS, with K-562 leukemia, in the assay on HCT-116 colon, in the assay on HT29 colon and in the assay with OVCAR-5 ovarian was more than 100 µM in each case.
As to `CCOC(=O)c1c(O)cn2c1[nH]c1cccc3cccc2c31`, the TGI with CCRF-CEM leukemia, with COLO 205 colon, with BT-549 breast, in the assay on KM12 colon, with HOP-92 NSCLC and with SK-MEL-5 melanoma was more than 100 µM in each case. Further, the TGI in the assay with SK-OV-3 ovarian, with U251 CNS, with K-562 leukemia, in the assay with HCT-116 colon, in the assay on HT29 colon and in the assay with OVCAR-5 ovarian was more than 100 µM throughout.
On to `Cc1cc(N(CCC#N)CCC#N)ccc1/C(N=Nc1ccc([N+](=O)[O-])cc1)=N\NC(=O)c1cc(Cl)ccc1O`, for which the TGI in the assay with CCRF-CEM leukemia is more than 100 µM; in the assay on COLO 205 colon it was 54.2 µM; in the assay on BT-549 breast, more than 100 µM; with OVCAR-3 ovarian it was 38.2 µM; with KM12 colon it was more than 100 µM; with SK-MEL-5 melanoma it was more than 100 µM. Besides, the TGI in the assay on SK-OV-3 ovarian is more than 100 µM; in the assay with U251 CNS it was more than 100 µM; with K-562 leukemia it was more than 100 µM; in the assay on HCT-116 colon it was 88.1 µM; with HT29 colon it was more than 100 µM; with OVCAR-5 ovarian, more than 100 µM.
As for `Nc1ncnc2c1ncn2[C@H]1C=C[C@@H](NO)C1`, the total growth inhibition concentration (TGI) with CCRF-CEM leukemia, in the assay on COLO 205 colon, in the assay with BT-549 breast, with OVCAR-3 ovarian, in the assay with KM12 colon and with HOP-92 NSCLC was more than 100 µM in each case. Moreover, the TGI in the assay on SK-MEL-5 melanoma, with SK-OV-3 ovarian, in the assay with U251 CNS, in the assay on K-562 leukemia, in the assay with HCT-116 colon and with OVCAR-5 ovarian was more than 100 µM throughout.
